Here are results for 3 compounds from US20180311268A1, “RESPONSE-GUIDED HCV THERAPY” (EMORY UNIVERSITY, priority 2015, published 2018).

One series concerns HCV genotype 1. The note with it: added to sofosbuvir and ledipasvir, 6 week triple-drug regimens; cited from earlier work.
Series [1] can be described thus: Plasma concentrations of anti-HCV drugs by LC-MS/MS. It counts as in vivo, human. The protocol:
Plasma samples from patients infected with HCV were stored in aliquots at −80° C. until further processing. Viral RNA was extracted and the genome sequenced using an Applied Biosystems 3730×1 DNA analyser as previously described.^21 Data were analysed with the ABL-DeepChek-HCV 1.4 software (ABL SA, Luxembourg, Luxembourg). To confirm compliance, a liquid chromatography-tandem mass spectrometry (LC-MS/MS) method was developed to detect and quantify the anti-HCV drug concentrations in plasma collected from each patient. Briefly, blood samples were collected from 25 patients at 8 h, 24 h, and 48 h after initiating treatment. 50 μL of plasma was extracted with 3 mL of ethyl acetate containing abacavir (as an internal standard). The supernatant was collected, air dried, then reconstituted in 2 mmol/L ammonium acetate solution with 75% methanol. Five target compounds were simultaneously monitored and quantified by LC-MS/MS in the multiple reaction monitoring mode, including sofosbuvir (m/z 530.2/243.2), daclatasvir (m/z 739.5/339.3), ledipasvir (m/z 889.4/637.3), asunaprevir (m/z 748.4/648.4), and simeprevir (m/z 750.4/315.2). A Dionex Ultimate 3000 HPLC system (Thermo Scientific, Waltham, Mass., USA) coupled with an AB SCIEX API5000 triple quadrupole mass spectrometer (AB SCIEX, Framingham, Mass., USA) was used for analysis.
Fifty μL plasma was extracted with 3 mL of ethyl acetate containing abacavir (as internal standard). The supernatant was collected, air-dried then reconstituted in 2 mM ammonium acetate solution with 75% methanol. Five target compounds were simultaneously monitored and quantified by LC-MS/MS in the multiple reaction monitoring (MRM) mode, including sofosbuvir (m/z 530.2à243.2), daclatasvir (m/z 739.5à339.3), ledipasvir (m/z 889.4à637.3), asunaprevir (m/z 748.4à648.4) and simeprevir (m/z 750.4à315.2). SOF concentrations were measured with a wide range from BLOQ to 3,174 ng/mL; LDV and DCV were in the range of BLOQ to 469 ng/mL and 101 to 3045 ng/mL; ASV and SMV were in the range of BLOQ to 626 ng/mL and 30.6 to 693 ng/mL, respectively.

Several values for one entry are separate records, joined by “and”; a condition that tells them apart may be missing. Equal entries are not always repeated. Some results are limits rather than exact numbers.

In the case of `CC1=CC[C@H](C(=O)N(c2cc(C#CC(C)(C)C)sc2C(=O)O)[C@H]2CC[C@](O)(CO[C@H]3CCOC3)CC2)CC1` [GS-9669], the “Patients with SVR12” value in the series on HCV genotype 1 is reported as 95%.
Turning to `CC[C@@H]1C[C@]1(NC(=O)[C@@H]1C[C@@H](Oc2cc(-c3csc(NC(C)C)n3)nc3c(Cl)c(OCCN4CCOCC4)ccc23)CN1C(=O)[C@@H](NC(=O)O[C@@H]1C[C@@H]2C[C@@H]2C1)C(C)(C)C)C(=O)O` [GS-9451], the “Patients with SVR12” value in the series on HCV genotype 1 is 95%.
Consider `CC(C)OC(=O)[C@H](C)N[P@](=O)(OC[C@H]1O[C@@H](n2ccc(=O)[nH]c2=O)[C@](C)(F)[C@@H]1O)Oc1ccccc1` [SOF, Sofosbuvir], for which the “Range of measured plasma concentrations” value in series [1] (all subjects, 8, 24 and 48 hr after first treatment, BLOQ = below LOQ) was ≤ 3,174 ng/mL. Further, the concentration at 8 h in series [1] (human, in vivo, individual subjects on SOF + DCV + ASV Then SOF + LDV, >3 weeks treatment, 8 h) turned out to be 9.99 ng/mL; in series [1] (human, in vivo, individual subjects on SOF + LDV + ASV Then SOF + LDV, >3 weeks treatment, 8 h), 0.67 ng/mL. For the same compound, the concentration at 24 h was found to be 11.2 ng/mL in series [1] (human, in vivo, individual subjects on SOF + DCV + ASV Then SOF + LDV, >3 weeks treatment, 24 h) and 2410 ng/mL in series [1] (human, in vivo, individual subjects on SOF + DCV + SMV, 3 weeks treatment, 24 h). The concentration at 48 h in series [1] (human, in vivo, individual subjects on SOF + DCV + ASV Then SOF + LDV, >3 weeks treatment, 48 h) is 631 ng/mL. For the same compound, the Plasma concentration in series [1] (individual subjects on SOF + DCV + ASV, 3 weeks treatment, 8 h) is 0.55 ng/mL and 0.28 ng/mL and 2.03 ng/mL and 13.5 ng/mL and 0.47 ng/mL; in series [1] (individual subjects on SOF + DCV + ASV, 3 weeks treatment, 24 h), 1.09 ng/mL and 0.28 ng/mL and 0.27 ng/mL and 192 ng/mL and 256 ng/mL; in series [1] (individual subjects on SOF + DCV + ASV, 3 weeks treatment, 48 h) it was 1.41 ng/mL and 0.80 ng/mL and 7.55 ng/mL and 292 ng/mL and 12.7 ng/mL and 1807 ng/mL; in series [1] (individual subjects on SOF + DCV + SMV, 3 weeks treatment, 8 h), 2.35 ng/mL and 0.26 ng/mL and 14.7 ng/mL and 0.42 ng/mL and 1.45 ng/mL; in series [1] (individual subjects on SOF + DCV + SMV, 3 weeks treatment, 24 h), 2114 ng/mL and 1923 ng/mL; in series [1] (individual subjects on SOF + DCV + SMV, 3 weeks treatment, 48 h) it was 3174 ng/mL and 1796 ng/mL and 1549 ng/mL and 1227 ng/mL. For the same compound, the Plasma concentration in series [1] (individual subjects on SOF + LDV + ASV Then SOF + LDV, >3 weeks treatment, 8 h) is 0.58 ng/mL; in series [1] (individual subjects on SOF + LDV + ASV Then SOF + LDV, >3 weeks treatment, 24 h), 202 ng/mL and 1591 ng/mL and 0.61 ng/mL; in series [1] (individual subjects on SOF + LDV + ASV, 3 weeks treatment, 8 h after initiating treatment), 7.17 ng/mL and 5.52 ng/mL and 4.22 ng/mL and 18.2 ng/mL and 4.54 ng/mL and 10.4 ng/mL; in series [1] (individual subjects on SOF + LDV + ASV, 3 weeks treatment, 24 h), 0.94 ng/mL and 8.92 ng/mL and 1.23 ng/mL and 2.13 ng/mL and 1.17 ng/mL and 0.99 ng/mL; in series [1] (individual subjects on SOF + LDV + ASV, 3 weeks treatment, 48 h), 4.76 ng/mL and 6.35 ng/mL and 0.64 ng/mL and 1.59 ng/mL and 0.92 ng/mL and 0.81 ng/mL.
